Data published in patent publication US7696194B2, “Visual function disorder improving agents” (Senju Pharmaceutical Co., Ltd., priority 2001, dated 2010).
Counter-ions that a name gives are not always drawn.

What was measured:
retinal ganglion cell [1] = experiment: In vitro extension of nerve axon of cultured retinal ganglion cells (Example 3); assay type: cell-based, Wistar rat
Method: Retinal ganglion cells were isolated from an eye ball of a Wistar rat and cultured in a 48 well plate coated with polylysine (50 μg/mL, Sigma) and merosin (2 μg/mL, GIBGO) at 37° C. under the environment of 5% CO2, 95% air. The number of cells was about 5000 cells/well. The culture solution was a culture solution (FCS-free culture solution) of Neurobasal Medium (GIBCO) supplemented with 50 ng/mL BDNF (human brain-derived neurotrophic factor, Sigma), 50 ng/mL CNTF (rat cilliary neurotrophic factor, Sigma), 5 μM forskolin (Sigma), 1 mM glutamine (Wako) and B27 Supplement (GIBCO; 1 mL/50 mL culture solution). After culture for 24 hrs in a culture solution of the aforementioned FCS-free culture solution supplemented with 10% FCS (FCS-supplemented culture solution containing Rho activator) and an FCS-free culture solution, the group cultured in the FCS-free culture solution was divided into 2 groups, and one of them was used as a compound 2 addition group with the addition of 10 μM of compound 2, and the other was used as a compound 2 non-addition group. After further culture for 24 hrs, the level of extension of nerve axon of a retinal ganglion cell was observed under an inverted light microscope. In addition, 1 μM lysophosphatidic acid (LPA), which is a Rho activator, was added to an FCS-free group and axon retraction due to Rho activation was also examined.

optic nerve cell [2] = experiment: In vivo optic nerve cell regeneration after optic nerve cut and sciatic nerve autograft (Example 4); set-up: species or system SD rats; settings: for regenerated optic nerve cell count relative to the control group: control = physiological saline; for regenerated optic nerve cell count relative to the normal group: 5 μL into the vitreous body, 6 weeks after grafting
Method: The optic nerve of SD rats weighing 220-280 g was cut under pentobarbital sodium (0.4 mg/kg, i.p.) anesthesia. Separately, the sciatic nerve of the optic nerve-severed rat was taken out in about 3-4 cm and autografted at an end of the optic nerve, which had been cut-earlier. The compound 2 dissolved to 120 μM was injected into the vitreous body by 5 μL immediately before cutting the optic nerve, and gelatin pieces (3 mm×3 mm; Spongel, Yamanouchi Pharm.) immersed in a 10 μM solution of compound 2 were embedded around the autograft (compound 2 treatment group—1). For compound 2 treatment group—2, the compound 2 dissolved to 1.2 mM was injected into the vitreous body by 5 μL and 100 μM of compound 2 was used around the graft. In the control group, physiological saline was used instead of compound 2. During the grafting, attention was paid to avoid damage to the ophthalmic artery, and after grafting, the retinal vascular network was confirmed with a funduscope before breeding under a temperature 23° C.±2, humidity-55±10% environment. The rats were allowed to have a free access to a feed and water. After 6 weeks from the grafting operation, the graft was transversely cut under pentobarbital sodium (0.4 mg/kg, i.p.) anesthesia, and 4-Di-10ASP [4-(4-didecylaminostyryl)-N-methyl-propidium iodide, Sigma, St. Louis, Mo.] crystal (ca. 2 mg) was embedded in the cut area of the graft, thereby to retrogradely label retinal ganglion cells. […]. The images of the retinal extension samples observed under a microscope were directly imported into computer images from the fluorescence microscope and the retrogradely labeled retinal ganglion cells were counted using an image analyzing soft (MacSCOP, MITANI CO.) (FIG. 4). The obtained number of the retrogradely labeled retinal ganglion cells was taken as indicating the regenerated optic nerve cells. Meanwhile, the optic nerve of the rat free of grafting was cut, 4-Di-10ASP crystal (ca. 2 mg) was embedded similarly, and the number of the labeled retinal ganglion cells of the retinal extension sample was taken as the number of optic nerve cells of the normal group.
The ratios (%) of the regenerated optic nerve cell counts of the control group, compound 2 treatment group—1 and compound 2 treatment group—2, relative to the optical nerve cell counts of the control, were calculated.

retinal ganglion cell [3] = experiment: In vitro axon length of cultured retinal ganglion cells, Calcein AM image analysis (Example 5); assay type: cell-based, Wistar rats; settings: 10 μM final concentration, N=3; for proportion of long neurites cells (axon not less than 100 μm) relative to the whole cells: control group 7%; for proportion of middle neurites cells (axon 21 μm-99 μm) relative to the whole cells: control group 12%
Method: In the same manner as in Examples 1 and 3, retinal ganglion cells isolated from the eye ball of 6 to 8-day-old Wistar rats (male-female mixture, SLC) were cultured (cell count: ca. 2000 cells/well). The test compounds (compounds 3-5) were added to the culture solution to the final concentration of 10 μM and respectively used as compound 3 addition group, compound 4 addition group and compound 5 addition group. The control was a test compound non-addition group. The compound 3 (4-[2-(2,3,4,5,6-pentafluorophenyl)acryloyl]cinnamic acid) was synthesized according to the description of Example 8 of JP-A-2000-44513 and used. As compound 4 (ethacrynic acid), one made by Sigma was used and as compound 5 (fasudil hydrochloride), a commercially-available fasudil hydrochloride hydrate injection: “Eril® Injection 30 mg” (produced and sold by Asahi Kasei Corporation) was used.
Using LIVE/DEAD® Viability/Cytotoxicity Kit (L-3224)(Molecular probes) and utilizing the fluorescence characteristics of viable cells by Calcein AM, Calcein AM was uptaken into the retinal ganglion cells and the level of extension of nerve axon of a retinal ganglion cell was observed under a fluorescence microscope. The images of the retinal extension samples observed under a microscope were directly imported into computer images from the fluorescence microscope and the length of the nerve axon was measured using an image analyzing soft (MacSCOP, MITANI CO.). The cells having an axon of not less than 100 μm in length were taken as long neurites cells, the cells having an axon of 21 μm-99 μm were taken as middle neurites cells, and the cells having an axon of not more than 20 μm in length were taken as short neurites cells (no axonal extension). The proportion (%) of the long neurites cells and middle neurites cells relative to the whole cells was calculated for each.

optic nerve cell [4] = experiment: In vivo optic nerve cell regeneration after optic nerve cut and sciatic nerve autograft (Example 2); set-up: species or system SD rats; settings: 120 μmol/L, 5 μL into the vitreous body plus gelatin pieces with 10 μmol/L around the autograft, 6 weeks after grafting
Method: The optic nerve of SD rats weighing 220-280 g was cut under pentobarbital sodium (0.4 mg/kg, i.p.) anesthesia. Separately, the sciatic nerve of the optic nerve-severed rat was taken out in about 3-4 cm and autografted at an end of the optic nerve, which had been cut earlier. The compound 1 dissolved to 120 μmol/L was injected into the vitreous body by 5 μL immediately before cutting the optic nerve, and gelatin pieces (3 mm×3 mm; Spongel, Yamanouchi Pharm.) immersed in a 10 μmol/L solution of compound 1 were embedded around the autograft (compound 1 treatment group). For the non-treatment group, physiological saline was used instead of compound 1 for both the injection into the vitreous body and preparation of the gelatin pieces. […] The images of the retinal extension samples observed under a microscope were directly imported into computer images from the fluorescence microscope and the retrogradedly labeled retinal ganglion cells were counted using an image analyzing soft (MacSCOP, MITANI CO.). […]
The ratios (%) of the regenerated cell counts of the non-treatment group and compound 1 treatment group, relative to the optic nerve cell counts of the control, were calculated.

retinal ganglion cell [5] = experiment: In vitro extension of nerve axon of cultured retinal ganglion cells (Example 1); assay type: cell-based, Wistar rat; settings: then 10 μM compound added, further 24 hrs
Method: Retinal ganglion cells were isolated from an eye ball of a Wistar rat, and cultured in a 48 well plate coated with polylysin (50 μg/mL, Sigma) and merosin (2 μg/mL, GIBCO) at 37° C. under the environment of 5% CO2, 95% air. The number of the cells was about 5000 cells/well. The culture solutions were a culture solution (fetal calf serum-free culture solution) of Neurobasal Medium (GIBCO) supplemented with 50 ng/mL BDNF (human brain-derived neurotrophic factor, Sigma), 50 ng/mL CNTF (rat cilliary neurotrophic factor, Sigma), 5 μM forskolin (Sigma), 1 mM glutamine (Wako) and B27 Supplement (GIBCO; 1 mL/50 mL culture solution), and a culture solution (FCS supplemented culture solution) of the aforementioned fetal calf serum-free culture solution supplemented with 10% fetal calf serum (hereinafter to be also referred to as FCS). After culture for 24 hrs in each culture solution, the group cultured in the FCS supplemented culture solution was divided into 2 groups, and one of them was used as a compound 1 addition group with the addition of 10 μM of compound 1, and the other was used as a compound 1 non-addition group. Similarly, the group cultured in the FCS-free culture solution was divided into a compound 1 addition group and a compound 1 non-addition group. […]

## lysophosphatidic acid [LPA, reference compound]
Retinal ganglion cell [1]; FCS-free culture solution 44 hrs, then 1 μM LPA, further 4 hrs
  axon retraction due to Rho activation: axon retraction effect

## C[C@@H](N)c1ccc(C(=O)Nc2ccnc3[nH]ccc23)cc1.Cl [compound 2, (R)-(+)-N-(1H-pyrrolo[2,3-b]pyridin-4-yl)-4-(1-aminoethyl)benzamide monohydrochloride]
Retinal ganglion cell [1]; FCS-free culture solution 24 hrs, then 10 μM compound added, further 24 hrs
  level of extension of nerve axon of a retinal ganglion cell: clearly showed an action of extending the nerve axon of the retinal ganglion cell
Optic nerve cell [2]; treatment group-1: 120 μM intravitreal, 10 μM around the autograft
  regenerated optic nerve cell count relative to the control group: about 2.3 times
Optic nerve cell [2]; treatment group-1: 120 μM, 10 μM gelatin pieces around the autograft
  regenerated optic nerve cell count relative to the normal group: about 16%
Optic nerve cell [2]; treatment group-2: 1.2 mM intravitreal, 100 μM around the graft
  regenerated optic nerve cell count relative to the control group: about 4 times
Optic nerve cell [2]; treatment group-2: 1.2 mM, 100 μM around the graft
  regenerated optic nerve cell count relative to the normal group: about 28%

## C=C(CC)C(=O)c1ccc(OCC(=O)O)c(Cl)c1Cl [compound 4, ethacrynic acid]
Retinal ganglion cell [3]
  proportion of long neurites cells (axon not less than 100 μm) relative to the whole cells: 11%
  proportion of middle neurites cells (axon 21 μm-99 μm) relative to the whole cells: 45%

## O=S(=O)(c1cccc2cnccc12)N1CCCNCC1 [compound 5, fasudil hydrochloride]
Retinal ganglion cell [3]
  proportion of long neurites cells (axon not less than 100 μm) relative to the whole cells: 15%
  proportion of middle neurites cells (axon 21 μm-99 μm) relative to the whole cells: 53%

## C=C(C(=O)c1ccc(C=CC(=O)O)cc1)c1c(F)c(F)c(F)c(F)c1F [compound 3, 4-[2-(2,3,4,5,6-pentafluorophenyl)acryloyl]cinnamic acid]
Retinal ganglion cell [3]
  proportion of long neurites cells (axon not less than 100 μm) relative to the whole cells: 22%
  proportion of middle neurites cells (axon 21 μm-99 μm) relative to the whole cells: 23%

## C[C@@H](N)c1ccc(C(=O)Nc2ccnc3[nH]ccc23)cc1.C[C@@H](N)c1ccc(C(=O)Nc2ccnc3[nH]ccc23)cc1.Cl.Cl.Cl.Cl.O.O.O [compound 1, (R)-(+)-N-(1H-pyrrolo[2,3-b]pyridin-4-yl)-4-(1-aminoethyl)benzamide dihydrochloride 3/2 hydrate]
Optic nerve cell [4]
  regenerated optic nerve cell count relative to the non-treatment group: about 2.4 times
Optic nerve cell [4]; control = rat free of grafting
  regenerated optic nerve cell count relative to the control group: about 12%
Retinal ganglion cell [5]; FCS-free culture solution 24 hrs
  level of extension of nerve axon of a retinal ganglion cell: the extension of nerve axon became remarkable
Retinal ganglion cell [5]; FCS-supplemented culture solution 24 hrs, versus non-addition group
  level of extension of nerve axon of a retinal ganglion cell: clearly showed a retinal ganglion cell nerve axon extending action
